Tests used:
Type in all cases: cell-based
[1] = biological target: T1, EGFR WT (Homo sapiens, UniProt P00533); assay: Activity for inhibiting EGFR (Table A), EGFR WT; conditions: read-out: EGFR WT, potency code (IC50)
[2] = biological target: T2, EGFR V3 (Homo sapiens, UniProt P00533, DELINS30-297G); assay: Activity for inhibiting EGFR (Table A), EGFR V3 (EGFR-Viii); conditions: read-out: EGFR V3, potency code (IC50)
T2 construct: expressed in transfected cells; host or cells: BaF3 (murine pro-B), retroviral pMXs-IRES-Blasticidin
T2 sequence (P00533 with tags, fused parts or gaps DELINS30-297G): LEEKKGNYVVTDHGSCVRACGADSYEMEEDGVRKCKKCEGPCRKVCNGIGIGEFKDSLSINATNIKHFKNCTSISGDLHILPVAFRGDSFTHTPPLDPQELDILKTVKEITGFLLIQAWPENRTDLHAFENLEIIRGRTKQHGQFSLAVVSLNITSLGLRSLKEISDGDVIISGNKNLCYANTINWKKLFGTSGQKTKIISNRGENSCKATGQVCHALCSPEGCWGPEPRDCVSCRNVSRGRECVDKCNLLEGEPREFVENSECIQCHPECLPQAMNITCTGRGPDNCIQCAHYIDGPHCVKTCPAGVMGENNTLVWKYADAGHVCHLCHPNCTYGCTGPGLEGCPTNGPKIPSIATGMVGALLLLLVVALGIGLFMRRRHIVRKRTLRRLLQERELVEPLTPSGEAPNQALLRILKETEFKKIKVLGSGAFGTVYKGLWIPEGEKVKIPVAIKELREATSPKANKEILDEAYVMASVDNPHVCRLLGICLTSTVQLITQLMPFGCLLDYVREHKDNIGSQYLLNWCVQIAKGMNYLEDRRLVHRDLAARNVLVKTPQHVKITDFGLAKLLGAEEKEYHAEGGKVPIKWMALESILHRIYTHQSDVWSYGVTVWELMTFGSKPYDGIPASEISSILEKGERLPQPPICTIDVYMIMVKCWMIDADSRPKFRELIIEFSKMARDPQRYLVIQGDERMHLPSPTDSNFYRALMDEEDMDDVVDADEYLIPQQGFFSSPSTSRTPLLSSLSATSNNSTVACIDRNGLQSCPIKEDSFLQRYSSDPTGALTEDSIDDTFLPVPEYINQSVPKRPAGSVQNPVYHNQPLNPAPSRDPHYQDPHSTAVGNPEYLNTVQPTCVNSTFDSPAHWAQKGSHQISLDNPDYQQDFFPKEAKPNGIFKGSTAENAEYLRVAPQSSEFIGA

[3] = biological target: T3, HER2 S310F (Homo sapiens, UniProt P04626, S310F); assay: Activity for inhibiting HER2 (Table B), HER2 S310F; conditions: read-out: HER2 S310F, potency code (IC50)
T3 construct: expressed in transfected cells; host or cells: BaF3 (murine pro-B)
T3 sequence (P04626 23-1255 S310F): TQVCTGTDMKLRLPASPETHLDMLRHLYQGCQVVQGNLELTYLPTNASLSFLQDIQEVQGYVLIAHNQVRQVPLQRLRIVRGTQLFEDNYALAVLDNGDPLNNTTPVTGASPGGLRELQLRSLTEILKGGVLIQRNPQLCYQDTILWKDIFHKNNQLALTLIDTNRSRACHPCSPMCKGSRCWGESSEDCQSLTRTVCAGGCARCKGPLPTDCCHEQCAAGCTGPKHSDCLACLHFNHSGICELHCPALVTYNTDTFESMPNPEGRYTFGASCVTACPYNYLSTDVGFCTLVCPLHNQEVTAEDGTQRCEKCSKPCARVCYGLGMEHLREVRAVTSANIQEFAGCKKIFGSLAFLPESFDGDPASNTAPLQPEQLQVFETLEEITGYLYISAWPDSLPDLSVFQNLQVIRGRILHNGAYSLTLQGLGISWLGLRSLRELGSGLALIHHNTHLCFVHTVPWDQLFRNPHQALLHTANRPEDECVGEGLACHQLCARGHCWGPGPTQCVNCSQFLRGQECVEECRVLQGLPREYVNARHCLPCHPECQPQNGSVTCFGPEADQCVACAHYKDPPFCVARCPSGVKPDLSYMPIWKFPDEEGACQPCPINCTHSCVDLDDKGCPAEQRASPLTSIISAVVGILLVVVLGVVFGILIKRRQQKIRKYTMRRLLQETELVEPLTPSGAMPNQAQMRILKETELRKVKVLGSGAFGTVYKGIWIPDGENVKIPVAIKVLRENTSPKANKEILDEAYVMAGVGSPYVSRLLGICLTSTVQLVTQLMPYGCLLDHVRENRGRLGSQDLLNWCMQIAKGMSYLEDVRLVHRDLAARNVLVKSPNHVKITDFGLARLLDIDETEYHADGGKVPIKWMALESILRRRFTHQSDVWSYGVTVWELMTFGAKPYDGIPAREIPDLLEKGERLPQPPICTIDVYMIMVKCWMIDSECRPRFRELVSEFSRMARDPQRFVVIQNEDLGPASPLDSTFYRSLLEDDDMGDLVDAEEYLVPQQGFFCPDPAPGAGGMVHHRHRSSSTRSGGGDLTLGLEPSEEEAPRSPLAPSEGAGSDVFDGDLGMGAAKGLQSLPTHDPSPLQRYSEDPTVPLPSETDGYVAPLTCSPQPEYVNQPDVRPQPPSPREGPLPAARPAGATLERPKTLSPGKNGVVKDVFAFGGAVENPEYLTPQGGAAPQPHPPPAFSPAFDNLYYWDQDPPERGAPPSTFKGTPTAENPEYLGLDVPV
Protocol: (§1) EC50 values were determined with the same application.

[4] = biological target: T4, HER2 YVMA (Homo sapiens, UniProt P04626, INS775YVMA); assay: Activity for inhibiting HER2 (Table B), HER2 YVMA; conditions: read-out: HER2 YVMA, potency code (IC50)
T4 construct: expressed in transfected cells; host or cells: BaF3 (murine pro-B)
T4 sequence (P04626 with tags, fused parts or gaps INS775YVMA): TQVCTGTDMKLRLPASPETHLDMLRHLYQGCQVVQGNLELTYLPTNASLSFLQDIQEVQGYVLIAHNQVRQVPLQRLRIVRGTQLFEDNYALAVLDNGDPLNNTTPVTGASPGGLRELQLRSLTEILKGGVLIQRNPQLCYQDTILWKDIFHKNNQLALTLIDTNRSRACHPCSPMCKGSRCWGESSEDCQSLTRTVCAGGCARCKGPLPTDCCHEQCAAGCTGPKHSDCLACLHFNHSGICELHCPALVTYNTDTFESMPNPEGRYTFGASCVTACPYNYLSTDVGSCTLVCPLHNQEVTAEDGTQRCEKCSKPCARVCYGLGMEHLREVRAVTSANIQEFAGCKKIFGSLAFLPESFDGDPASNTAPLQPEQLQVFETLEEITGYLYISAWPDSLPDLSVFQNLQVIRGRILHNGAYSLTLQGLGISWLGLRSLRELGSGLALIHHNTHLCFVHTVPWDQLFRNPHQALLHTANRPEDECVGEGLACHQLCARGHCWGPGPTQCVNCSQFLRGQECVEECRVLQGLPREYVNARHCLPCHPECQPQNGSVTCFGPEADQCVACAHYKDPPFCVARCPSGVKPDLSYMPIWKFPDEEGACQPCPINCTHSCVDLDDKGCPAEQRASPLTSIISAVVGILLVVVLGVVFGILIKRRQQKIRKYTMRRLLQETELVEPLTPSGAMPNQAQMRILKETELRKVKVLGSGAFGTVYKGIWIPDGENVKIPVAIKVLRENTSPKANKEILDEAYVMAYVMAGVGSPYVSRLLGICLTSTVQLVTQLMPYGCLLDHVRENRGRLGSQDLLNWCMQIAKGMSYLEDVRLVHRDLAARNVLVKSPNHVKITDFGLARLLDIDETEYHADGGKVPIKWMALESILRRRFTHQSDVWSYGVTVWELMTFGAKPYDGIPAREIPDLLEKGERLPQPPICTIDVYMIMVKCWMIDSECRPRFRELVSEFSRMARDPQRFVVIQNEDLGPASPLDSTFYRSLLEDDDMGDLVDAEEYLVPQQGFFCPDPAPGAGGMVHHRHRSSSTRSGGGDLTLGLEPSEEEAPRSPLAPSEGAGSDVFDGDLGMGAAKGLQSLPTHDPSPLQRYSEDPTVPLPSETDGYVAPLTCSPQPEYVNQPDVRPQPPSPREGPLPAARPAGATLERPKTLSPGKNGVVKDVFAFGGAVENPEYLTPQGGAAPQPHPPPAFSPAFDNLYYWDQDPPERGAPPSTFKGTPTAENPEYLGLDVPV
Protocol: as §1

[5] = biological target: T1, EGFR WT; assay: BaF3 cell proliferation assay, EGFR WT (Table A); conditions: potency code, 3 days, CellTiterGlo, read-out: EGFR WT (Activity for Inhibiting EGFR)
How it was run: (§2)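 BaF3 + retroviral EGFR/HER2 mutant (two rounds of spinfection, 8 μg/ml polybrene); 10 μg/ml Blasticidin selection 1 wk; IL-3 withdrawn to select IL-3-independent growth. EC50 from cell proliferation.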

[6] = biological target: T2, EGFR V3; assay: BaF3 cell proliferation assay, EGFR V3 (Table A); conditions: potency code, 3 days, CellTiterGlo, read-out: EGFR V3 (Activity for Inhibiting EGFR)
How it was run: as §2

[7] = biological target: T3, HER2 S310F; assay: BaF3 cell proliferation assay, HER2 S310F (Table B); conditions: potency code, 3 days, CellTiterGlo, read-out: HER2 S310F (Activity for Inhibiting HER2)
[8] = biological target: T4, HER2 YVMA; assay: BaF3 cell proliferation assay, HER2 YVMA (Table B); conditions: potency code, 3 days, CellTiterGlo, read-out: HER2 YVMA (Activity for Inhibiting HER2)

T1 sequence (P00533 25-1210 N540K): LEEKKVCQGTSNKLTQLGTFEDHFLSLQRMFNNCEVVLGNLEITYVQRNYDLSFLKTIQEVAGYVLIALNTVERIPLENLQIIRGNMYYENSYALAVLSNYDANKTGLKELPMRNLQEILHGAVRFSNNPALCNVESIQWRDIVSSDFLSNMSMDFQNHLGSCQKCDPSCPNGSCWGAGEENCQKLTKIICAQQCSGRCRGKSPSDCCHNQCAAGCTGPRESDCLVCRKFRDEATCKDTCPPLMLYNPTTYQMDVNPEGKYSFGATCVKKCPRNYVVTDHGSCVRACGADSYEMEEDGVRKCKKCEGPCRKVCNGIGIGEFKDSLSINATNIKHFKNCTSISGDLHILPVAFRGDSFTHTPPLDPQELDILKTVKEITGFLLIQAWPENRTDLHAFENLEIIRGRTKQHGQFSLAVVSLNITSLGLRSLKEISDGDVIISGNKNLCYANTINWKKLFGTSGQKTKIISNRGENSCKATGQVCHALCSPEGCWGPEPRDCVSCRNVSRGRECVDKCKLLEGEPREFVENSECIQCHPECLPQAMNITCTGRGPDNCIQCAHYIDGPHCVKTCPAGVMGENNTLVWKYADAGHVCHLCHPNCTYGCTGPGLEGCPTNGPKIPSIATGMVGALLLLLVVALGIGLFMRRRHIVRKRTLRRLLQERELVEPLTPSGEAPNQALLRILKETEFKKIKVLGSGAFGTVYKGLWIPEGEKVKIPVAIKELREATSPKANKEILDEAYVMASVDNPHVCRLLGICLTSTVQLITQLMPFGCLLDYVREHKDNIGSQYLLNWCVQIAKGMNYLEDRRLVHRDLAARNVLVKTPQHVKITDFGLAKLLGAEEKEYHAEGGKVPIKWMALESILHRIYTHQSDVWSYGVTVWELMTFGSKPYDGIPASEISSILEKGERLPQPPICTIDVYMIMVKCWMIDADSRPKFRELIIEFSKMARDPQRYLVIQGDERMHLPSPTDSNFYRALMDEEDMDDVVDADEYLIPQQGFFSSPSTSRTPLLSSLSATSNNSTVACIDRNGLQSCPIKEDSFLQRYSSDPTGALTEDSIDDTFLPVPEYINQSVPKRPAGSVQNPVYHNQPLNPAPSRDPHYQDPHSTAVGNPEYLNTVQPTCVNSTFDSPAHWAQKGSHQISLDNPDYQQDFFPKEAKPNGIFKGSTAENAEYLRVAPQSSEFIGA

SMILES	IC50 [1]	IC50 [2]	IC50 [3]	IC50 [4]	IC50 [5]	IC50 [6]	IC50 [7]	IC50 [8]
COC/C=C/C(=O)Nc1cc2c(Nc3ccc(OCc4ccccn4)c(Cl)c3)ncnc2cc1OCCN1CCOCC1 [compound 112, (E)-N-(4-((3-chloro-4-(pyridin-2-ylmethoxy)phenyl)amino)-7-(2-morpholinoethoxy)quinazolin-6-yl)-4-methoxybut-2-enamide]	300 to 500 nM	100 to 200 nM	300 to 500 nM	> 1000 nM	300 to 500 nM	100 to 200 nM	300 to 500 nM	> 1000 nM
C=CC(=O)Nc1cc2c(Nc3ccc(OCc4ccccn4)c(Cl)c3)ncnc2cc1C#C[C@@H]1[C@H]2CN(C3COC3)C[C@@H]12 [compound 113, N-(4-((3-chloro-4-(pyridin-2-ylmethoxy)phenyl)amino)-7-(((1R,5S,6s)-3-(oxetan-3-yl)-3-azabicyclo[3.1.0]hexan-6-yl)ethynyl)quinazolin-6-yl)acrylamide]	500 to 1000 nM	50 to 100 nM	30 to 50 nM	100 to 200 nM	500 to 1000 nM	50 to 100 nM	30 to 50 nM	100 to 200 nM
C=CC(=O)Nc1cc2c(Nc3ccc(OCc4ccccn4)c(Cl)c3)ncnc2cc1OCCN1CCC(OC)CC1 [compound 114, N-(4-((3-chloro-4-(pyridin-2-ylmethoxy)phenyl)amino)-7-(2-(4-methoxypiperidin-1-yl)ethoxy)quinazolin-6-yl)acrylamide]	300 to 500 nM	30 to 50 nM	30 to 50 nM	100 to 200 nM	300 to 500 nM	30 to 50 nM	30 to 50 nM	100 to 200 nM
C=CC(=O)Nc1cc2c(Nc3ccc(OCc4ccccn4)c(Cl)c3)ncnc2cc1OCCN1CC2(CCN2C)C1 [compound 115]	200 to 300 nM	30 to 50 nM	30 to 50 nM	50 to 100 nM	200 to 300 nM	30 to 50 nM	30 to 50 nM	50 to 100 nM
C=CC(=O)Nc1cc2c(Nc3ccc(OCc4ccccn4)c(Cl)c3)ncnc2cc1OCC1CCN1C (stereo not drawn) [compound 116, N-(4-((3-chloro-4-(pyridin-2-ylmethoxy)phenyl)amino)-7-((1-methylazetidin-2-yl)methoxy)quinazolin-6-yl)acrylamide]	500 to 1000 nM	30 to 50 nM	30 to 50 nM	200 to 300 nM	500 to 1000 nM	30 to 50 nM	30 to 50 nM	200 to 300 nM
C=CC(=O)Nc1cc2c(Nc3ccc(Oc4ccccc4)c(C)c3)ncnc2cc1C#C[C@@H]1[C@H]2CN(C)C[C@@H]12 [compound 117, N-(7-(((1R,5S,6s)-3-methyl-3-azabicyclo[3.1.0]hexan-6-yl)ethynyl)-4-((3-methyl-4-phenoxyphenyl)amino)quinazolin-6-yl)acrylamide]	500 to 1000 nM	100 to 200 nM	50 to 100 nM	100 to 200 nM	500 to 1000 nM	100 to 200 nM	50 to 100 nM	100 to 200 nM
C=CC(=O)Nc1cc2c(Nc3ccc(OCc4ccccn4)c(Cl)c3)ncnc2cc1OCCN1CC2(CN(C)C2)C1 [compound 119, N-(4-((3-chloro-4-(pyridin-2-ylmethoxy)phenyl)amino)-7-(2-(6-methyl-2,6-diazaspiro[3.3]heptan-2-yl)ethoxy)quinazolin-6-yl)acrylamide]	300 to 500 nM	50 to 100 nM	50 to 100 nM	100 to 200 nM	300 to 500 nM	50 to 100 nM	50 to 100 nM	100 to 200 nM
C=CC(=O)Nc1cc2c(Nc3ccc(OCc4ccccn4)c(Cl)c3)ncnc2cc1OCCC1COCCN1C (stereo not drawn) [compound 120, N-(4-((3-chloro-4-(pyridin-2-ylmethoxy)phenyl)amino)-7-(2-(4-methylmorpholin-3-yl)ethoxy)quinazolin-6-yl)acrylamide]	> 1000 nM	30 to 50 nM	10 to 20 nM	50 to 100 nM	> 1000 nM	30 to 50 nM	10 to 20 nM	50 to 100 nM
C=CC(=O)Nc1cc2c(Nc3ccc(CC(=O)c4ccccn4)c(Cl)c3)ncnc2cc1O[C@@H]1CCN(C)C1 [compound 121]	> 1000 nM	100 to 200 nM	30 to 50 nM	300 to 500 nM	> 1000 nM	100 to 200 nM	30 to 50 nM	300 to 500 nM
C=CC(=O)Nc1cc2c(Nc3ccc(OCc4ccccn4)c(Cl)c3)ncnc2cc1OCC12CCC(CC1)N2C [compound 122, N-(4-((3-chloro-4-(pyridin-2-ylmethoxy)phenyl)amino)-7-((7-methyl-7-azabicyclo[2.2.1]heptan-1-yl)methoxy)quinazolin-6-yl)acrylamide]	500 to 1000 nM	50 to 100 nM	100 to 200 nM	500 to 1000 nM	500 to 1000 nM	50 to 100 nM	100 to 200 nM	500 to 1000 nM
C=CC(=O)Nc1cc2c(Nc3ccc(OCc4ccccn4)c(Cl)c3)ncnc2cc1OCC1CN(C)C1 [compound 123, N-(4-((3-chloro-4-(pyridin-2-ylmethoxy)phenyl)amino)-7-((1-methylazetidin-3-yl)methoxy)quinazolin-6-yl) Acrylamide]	200 to 300 nM	30 to 50 nM	30 to 50 nM	100 to 200 nM	200 to 300 nM	30 to 50 nM	30 to 50 nM	100 to 200 nM
C=CC(=O)Nc1cc2c(Nc3ccc(OCc4ccccn4)c(Cl)c3)ncnc2cc1C#CC1CC2(C1)CN(C)C2 [compound 124, N-(4-((3-chloro-4-(pyridin-2-ylmethoxy)phenyl)amino)-7-((2-methyl-2-azaspiro[3.3]heptan-6-yl)ethynyl)quinazolin-6-yl)acrylamide]	500 to 1000 nM	30 to 50 nM	30 to 50 nM	100 to 200 nM	500 to 1000 nM	30 to 50 nM	30 to 50 nM	100 to 200 nM
C=CC(=O)Nc1cc2c(Nc3ccc(OCc4ccccn4)c(Cl)c3)ncnc2cc1OCCN1CCS(=O)(=O)CC1 [compound 125]	500 to 1000 nM	100 to 200 nM	100 to 200 nM	> 1000 nM	500 to 1000 nM	100 to 200 nM	100 to 200 nM	> 1000 nM
C=CC(=O)Nc1cc2c(Nc3ccc(OCc4ccccn4)c(Cl)c3)ncnc2cc1C#CC12CCN(CC1)CC2 [compound 126, N-(4-((3-chloro-4-(pyridin-2-ylmethoxy)phenyl)amino)-7-(quinuclidin-4-ylethynyl)quinazolin-6-yl)acrylamide]	300 to 500 nM	30 to 50 nM	30 to 50 nM	50 to 100 nM	300 to 500 nM	30 to 50 nM	30 to 50 nM	50 to 100 nM
C=CC(=O)Nc1cc2c(Nc3ccc(Oc4ccc(Cl)c(F)c4)cc3)ncnc2cc1OCCN1CCOCC1 [compound 127]	500 to 1000 nM	50 to 100 nM	300 to 500 nM	> 1000 nM	500 to 1000 nM	50 to 100 nM	300 to 500 nM	> 1000 nM

From US11034672B1, “Tyrosine kinase inhibitor compositions, methods of making and methods of use” (Black Diamond Therapeutics, Inc., priority 2018, dated 2021)
